The target in one assay is GsAK (Geobacillus stearothermophilus, UniProt P27142). Nature of the assay: microscale thermophoresis, amine-labelled protein. Type of assay: binding. In general terms: MST reads how a fluorescent partner responds to local heating, with and without ligand.
The target of another assay is BsAK (Bacillus subtilis, UniProt P16304). Description: microscale thermophoresis, amine-labelled protein. It counts as binding.
BsAK, sequence (P16304 whole entry): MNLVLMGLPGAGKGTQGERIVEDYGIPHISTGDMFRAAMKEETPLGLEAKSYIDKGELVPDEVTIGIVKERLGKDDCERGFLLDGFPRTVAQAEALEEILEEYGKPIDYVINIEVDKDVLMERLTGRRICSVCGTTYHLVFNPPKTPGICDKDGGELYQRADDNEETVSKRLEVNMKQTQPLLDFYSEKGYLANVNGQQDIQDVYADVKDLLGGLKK

GsAK, sequence (P27142 whole entry): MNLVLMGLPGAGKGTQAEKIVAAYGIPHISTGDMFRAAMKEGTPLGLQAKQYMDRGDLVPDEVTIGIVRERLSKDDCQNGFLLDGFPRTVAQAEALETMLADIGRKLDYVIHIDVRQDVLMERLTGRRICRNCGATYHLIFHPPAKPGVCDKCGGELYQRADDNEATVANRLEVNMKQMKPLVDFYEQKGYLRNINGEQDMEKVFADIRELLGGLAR

Broadly, the Kd is the concentration at which binding is half-saturated. High values mean weaker binding, low ones tighter binding. `Nc1ncnc2c1ncn2[C@@H]1O[C@H](COP(=O)(O)OP(=O)(O)OP(=O)(O)OP(=O)(O)OP(=O)(O)OC[C@H]2O[C@@H](n3cnc4c(N)ncnc43)[C@H](O)[C@@H]2O)[C@@H](O)[C@H]1O` [Ap5A]: the equilibrium dissociation constant (Kd) on GsAK came out at 17 ± 5.7 nM; on BsAK it was 25.1 ± 1.1 nM.

The values above are taken from paper doi:10.1101/2023.10.25.564053v1 (biorxiv, 2023).
